Experiments:
[1] = Clearance from the ocular surface (extraction from PRT threads, UPLC); assay type: in vivo, Rats, Sprague Dawley
Description: Procedure for P-1046 (Compound 15 Formula I, aka I, aka P-1046, aka 1046): […]
Extraction from PRT Threads:
All PRT threads were collected in eppendorf tubes and stored at −20 C until the time of drug concentration analysis. P-1046 was extracted from threads and analyzed as follows:
(§1) • 1. 200 μL of 70% ACN (70% ACN, 30% H2O) was added into sample tubes which have threads in them. • 2. Tubes from Step 1 were vortexed for 30 seconds and sonicated for 1 minute to fully immerse the threads. • 3. The sample solutions were incubated for 4 hours at room temperature. • 4. Samples were vortexed again for 30 seconds. • 5. 75 μL, of the each sample solution (from step 4) was removed into 96-well UPLC plate with an additional 75 μL of mobile phase A (5 mM ammonium formate, 0.1% formic acid in H2O) added into each sample well. • 6. Analytical standards (10 mM, 1 mM, 100 µM, 10 µM, 1 µM, 100 nM, Buffer) were prepared identically to the thread solutions. • 7. Drug concentrations from all samples were analyzed by UPLC. Solubility and Stability Testing for Compound 15 (Formula I, aka I, aka P-1046, aka 1046): Procedure for Solubility and Stability Evaluation: • 1. Prepare 2.8% NaCl and 25 mM citrate buffer, pH of the solution 4.2. The osmolality of the solution is approximately 940 mOsM. • 2. Add appropriate amount of buffer solution to a test compound to make approximate concentration of 10 mg/mL. • 3. Vortex the solution for 15 seconds, sonicate for 30 seconds, again vortex for 60 seconds and visually observe the solution. • 4. Calculate final concentration of the solution by a spectrophotometer. • Remove a portion of solution and dilute it to 1:10 ratio. Put this solution at 50° C. for the accelerated stability study for 10 days. • Obtain stability data by HPLC analysis • 5. Prepare 2.8% NaCl and 25 mM citrate buffer, pH of the solution 4.2. The osmolality of the solution is approximately 940 mOsM. • 6. Add appropriate amount of buffer solution to a test compound to make approximate concentration of 10 mg/mL. • 7. […]

[2] = Solubility and accelerated stability in citrate buffer; assay type: physicochemical; settings: pH 4.2 citrate buffer with 2.8% NaCl
Description: as §1, with “ratio.” for “ratio. Put this solution at 50° C. for the accelerated stability study for 10 days. • Obtain stability data by HPLC analysis • 5. Prepare 2.8% NaCl and 25 mM citrate buffer, pH of the solution 4.2. The osmolality of the solution is approximately 940 mOsM. • 6. Add appropriate amount of buffer solution to a test compound to make approximate concentration of 10 mg/mL. • 7.”

[3] = test system: Human Bronchial Epithelial; assay: Metabolism by human bronchial epithelial cells; assay type: in vitro ADME; settings: apical or basolateral
Description: Airway epithelial cells have the capacity to metabolize drugs during the process of transepithelial absorption. Further, although less likely, it is possible that drugs can be metabolized on airway epithelial surfaces by specific ectoenzyme activities. Perhaps more likely as an ecto-surface event, compounds may be metabolized by the infected secretions that occupy the airway lumens of patients with lung disease, e.g. cystic fibrosis. Thus, a series of assays is performed to characterize the compound metabolism that results from the interaction of test compounds with human airway epithelia and/or human airway epithelial lumenal products.
In the first series of assays, the interaction of test compounds in KBR as an “ASL” stimulant are applied to the apical surface of human airway epithelial cells grown in the T-Col insert system. For most compounds, metabolism (generation of new species) is tested for using high performance liquid chromatography (HPLC) to resolve chemical species and the endogenous fluorescence properties of these compounds to estimate the relative quantities of test compound and novel metabolites. […] In instances where the fluorescence properties of the test molecule are not adequate for such characterizations, radiolabeled compounds are used for these assays. […]

In the case of `CN(C)C(=O)[C@H](CCCCNC(=N)N)NC(=O)[C@H](CCc1ccc(CCCCNC(=N)NC(=O)c2nc(Cl)c(N)nc2N)cc1)N(C)C` [Compound I, 3,5-diamino-6-chloro-N-(N-(4-(4-((S)-3-(dimethylamino)-4-((S)-1-(dimethylamino)-6-guanidino-1-oxohexan-2-ylamino)-4-oxobutyl)phenyl)butyl)carbamimidoyl)pyrazine-2-carboxamide], the “Clearance from the ocular surface, profile” value ([1]; all concentrations tested) is reported as “apparent bi-phasic clearance”, the “Concentration on ocular surface during the slow clearance phase vs IC50” value ([1]; dosed concentration >1 mM, 30 to 120 minutes post-dose) is reported as “well above the IC50” and the “Time by which the majority of the drug is cleared from the ocular surface” value ([1]; post-dose, followed by slow clearance phase 30 to 120 minutes) is reported as ≤ 30 min. The “Stability (HPLC), degradation” value ([2]; 10 days at 50° C.) was “No degradation”, the solubility ([2]; aqueous buffer, thermodynamic from solid, highest concentration tested) was ≥ 8800 µg/mL and the “Metabolism by Human Bronchial Epithelial” value [3] was “No metabolites detected”.

— patent US10159672B2 (PARION SCIENCES, INC., priority 2011, dated 2018)
